{"source": "patent US20260271978A1", "about": "“USE OF FATTY ACIDS TO MODIFY FLAVOR” (Firmenich Incorporated, priority 2023, published 2026)", "key": {"[1]": {"test": "Sensory panel rating of fava bean protein solution at 6% with fatty acid at 400 ppm", "conditions": "400 ppm in fava bean protein, 6 wt% in water, no sugar; mean of 18 panelists, scale 0 to 5", "description": "(§1) Liquid solutions of fava bean protein were prepared (6 percent by weight in water) without sugar added. Control and test samples were prepared. To the test sample 10-undecenoic acid was added at a concentration of 400 ppm. The control and test samples were evaluated by 18 sensory panelists to rate various characteristics of the control sample and the test sample on a scale from 0 to 5."}, "[2]": {"test": "Sensory panel rating of oat/pea protein blend solution at 3% with fatty acid at 400 ppm", "conditions": "400 ppm in oat/pea protein blend (1:14 w/w), about 3 wt% in water, no sugar; mean of eight panelists, scale 0 to 5", "description": "as §1, with “a blend of oat and pea” for “fava bean”, “protein (1:14 w/w)” for “protein”, “(about 3” for “(6”, “eight” for “18”"}, "[3]": {"test": "Sensory panel rating of pea protein solution at 3% with fatty acid at 1000 ppm", "conditions": "1000 ppm in pea protein, 3 wt% in water, no sugar; mean of eight panelists, scale 0 to 5", "description": "as §1, with “pea” for “fava bean”, “(3” for “(6”, “1000” for “400”, “eight” for “18”"}, "[4]": {"test": "Sensory panel rating of chickpea protein solution at 6% with fatty acid at 700 ppm", "conditions": "700 ppm in chickpea protein, 6 wt% in water, no sugar; mean of 18 panelists, scale 0 to 5", "description": "as §1, with “xchickpea” for “fava bean”, “700” for “400”"}, "[5]": {"test": "Sensory panel rating of oat/pea protein blend solution at 6% with fatty acid at 400 ppm", "conditions": "400 ppm in oat/pea protein blend (1:28 w/w), about 6 wt% in water, no sugar; mean of eight panelists, scale 0 to 5", "description": "as §1, with “a blend of oat and pea” for “fava bean”, “protein (1:28 w/w)” for “protein”, “(about 6” for “(6”, “eight” for “18”"}, "[6]": {"test": "Sensory panel rating of pea protein solution at 3% with fatty acid at 700 ppm", "conditions": "700 ppm in pea protein, 3 wt% in water, no sugar; mean of eight panelists, scale 0 to 5", "description": "as §1, with “pea” for “fava bean”, “(3” for “(6”, “700” for “400”, “eight” for “18”"}}, "data": [{"smiles": "C=CCCCCCCCCC(=O)O", "note": "[10-undecenoic acid, Undec-10-enoic acid]", "values": [{"measurement": "Astringent", "setting": "[1]", "value": 3.2}, {"measurement": "Bitter", "setting": "[1]", "value": 2.4}, {"measurement": "Cereal Note", "setting": "[1]", "value": 2.3}, {"measurement": "Creaminess", "setting": "[1]", "value": 1.2}, {"measurement": "Fattiness", "setting": "[1]", "value": 1.3}, {"measurement": "Green/Vegetal Note", "setting": "[1]", "value": 2.7}, {"measurement": "Mouthcoating", "setting": "[1]", "value": 1.8}, {"measurement": "Sweet", "setting": "[1]", "value": 2.3}, {"measurement": "Thickness", "setting": "[1]", "value": 1.2}, {"measurement": "Astringent", "setting": "[2]", "value": 1.8}, {"measurement": "Bitter", "setting": "[2]", "value": 1.7}, {"measurement": "Cereal Note", "setting": "[2]", "value": 2.5}, {"measurement": "Creaminess", "setting": "[2]", "value": 1.6}, {"measurement": "Fattiness", "setting": "[2]", "value": 1.4}, {"measurement": "Green/Vegetal Note", "setting": "[2]", "value": 2.1}, {"measurement": "Mouthcoating", "setting": "[2]", "value": 2.0}, {"measurement": "Sweet", "setting": "[2]", "value": 3.6}, {"measurement": "Thickness", "setting": "[2]", "value": 1.9}, {"measurement": "Astringent", "setting": "[3]", "value": 2.1}, {"measurement": "Bitter", "setting": "[3]", "value": 1.7}, {"measurement": "Cereal Note", "setting": "[3]", "value": 2.7}, {"measurement": "Creaminess", "setting": "[3]", "value": 2.1}, {"measurement": "Fattiness", "setting": "[3]", "value": 2.0}, {"measurement": "Green/Vegetal Note", "setting": "[3]", "value": 2.0}, {"measurement": "Mouthcoating", "setting": "[3]", "value": 2.9}, {"measurement": "Sweet", "setting": "[3]", "value": 3.4}, {"measurement": "Thickness", "setting": "[3]", "value": 2.1}, {"measurement": "Astringent", "setting": "[4]", "value": 2.4}, {"measurement": "Bitter", "setting": "[4]", "value": 2.1}, {"measurement": "Cereal Note", "setting": "[4]", "value": 2.7}, {"measurement": "Creaminess", "setting": "[4]", "value": 2.3}, {"measurement": "Fattiness", "setting": "[4]", "value": 1.9}, {"measurement": "Green/Vegetal Note", "setting": "[4]", "value": 2.8}, {"measurement": "Mouthcoating", "setting": "[4]", "value": 2.4}, {"measurement": "Sweet", "setting": "[4]", "value": 2.8}, {"measurement": "Thickness", "setting": "[4]", "value": 1.6}, {"measurement": "Astringent", "setting": "[5]", "value": 1.8}, {"measurement": "Bitter", "setting": "[5]", "value": 1.8}, {"measurement": "Cereal Note", "setting": "[5]", "value": 2.8}, {"measurement": "Creaminess", "setting": "[5]", "value": 2.4}, {"measurement": "Fattiness", "setting": "[5]", "value": 2.3}, {"measurement": "Green/Vegetal Note", "setting": "[5]", "value": 2.3}, {"measurement": "Mouthcoating", "setting": "[5]", "value": 3.3}, {"measurement": "Sweet", "setting": "[5]", "value": 3.1}, {"measurement": "Thickness", "setting": "[5]", "value": 2.9}, {"measurement": "Astringent", "setting": "[6]", "value": 2.6}, {"measurement": "Bitter", "setting": "[6]", "value": 2.1}, {"measurement": "Cereal Note", "setting": "[6]", "value": 2.4}, {"measurement": "Creaminess", "setting": "[6]", "value": 1.8}, {"measurement": "Fattiness", "setting": "[6]", "value": 1.9}, {"measurement": "Green/Vegetal Note", "setting": "[6]", "value": 2.4}, {"measurement": "Mouthcoating", "setting": "[6]", "value": 2.3}, {"measurement": "Sweet", "setting": "[6]", "value": 3.1}, {"measurement": "Thickness", "setting": "[6]", "value": 2.0}]}]}
